# Assay results as given in ChEMBL document CHEMBL3727350, “Agents and methods for treating ischemic and other diseases” (2014).
# Activity calls are given as the source filed them. No cut-off for these calls is given here.
# Target: Transient receptor potential cation channel subfamily M member 7 (Mus musculus) (UniProt Q923J1)
# Assay: Inhibition of Tet-induced Flag-tagged mouse TRPM7 expressed in HEK293 cells assessed as inhibition of channel-mediated cell death in presence of Mg2+ incubated for 24 to 48 hrs by propidium iodide uptake assay
# Format: cell-based
# Parameters: concentration or dose not given beside the values
# Settings: not given
# Sequence of Transient receptor potential cation channel subfamily M member 7 (Mus musculus) (Q923J1 whole entry): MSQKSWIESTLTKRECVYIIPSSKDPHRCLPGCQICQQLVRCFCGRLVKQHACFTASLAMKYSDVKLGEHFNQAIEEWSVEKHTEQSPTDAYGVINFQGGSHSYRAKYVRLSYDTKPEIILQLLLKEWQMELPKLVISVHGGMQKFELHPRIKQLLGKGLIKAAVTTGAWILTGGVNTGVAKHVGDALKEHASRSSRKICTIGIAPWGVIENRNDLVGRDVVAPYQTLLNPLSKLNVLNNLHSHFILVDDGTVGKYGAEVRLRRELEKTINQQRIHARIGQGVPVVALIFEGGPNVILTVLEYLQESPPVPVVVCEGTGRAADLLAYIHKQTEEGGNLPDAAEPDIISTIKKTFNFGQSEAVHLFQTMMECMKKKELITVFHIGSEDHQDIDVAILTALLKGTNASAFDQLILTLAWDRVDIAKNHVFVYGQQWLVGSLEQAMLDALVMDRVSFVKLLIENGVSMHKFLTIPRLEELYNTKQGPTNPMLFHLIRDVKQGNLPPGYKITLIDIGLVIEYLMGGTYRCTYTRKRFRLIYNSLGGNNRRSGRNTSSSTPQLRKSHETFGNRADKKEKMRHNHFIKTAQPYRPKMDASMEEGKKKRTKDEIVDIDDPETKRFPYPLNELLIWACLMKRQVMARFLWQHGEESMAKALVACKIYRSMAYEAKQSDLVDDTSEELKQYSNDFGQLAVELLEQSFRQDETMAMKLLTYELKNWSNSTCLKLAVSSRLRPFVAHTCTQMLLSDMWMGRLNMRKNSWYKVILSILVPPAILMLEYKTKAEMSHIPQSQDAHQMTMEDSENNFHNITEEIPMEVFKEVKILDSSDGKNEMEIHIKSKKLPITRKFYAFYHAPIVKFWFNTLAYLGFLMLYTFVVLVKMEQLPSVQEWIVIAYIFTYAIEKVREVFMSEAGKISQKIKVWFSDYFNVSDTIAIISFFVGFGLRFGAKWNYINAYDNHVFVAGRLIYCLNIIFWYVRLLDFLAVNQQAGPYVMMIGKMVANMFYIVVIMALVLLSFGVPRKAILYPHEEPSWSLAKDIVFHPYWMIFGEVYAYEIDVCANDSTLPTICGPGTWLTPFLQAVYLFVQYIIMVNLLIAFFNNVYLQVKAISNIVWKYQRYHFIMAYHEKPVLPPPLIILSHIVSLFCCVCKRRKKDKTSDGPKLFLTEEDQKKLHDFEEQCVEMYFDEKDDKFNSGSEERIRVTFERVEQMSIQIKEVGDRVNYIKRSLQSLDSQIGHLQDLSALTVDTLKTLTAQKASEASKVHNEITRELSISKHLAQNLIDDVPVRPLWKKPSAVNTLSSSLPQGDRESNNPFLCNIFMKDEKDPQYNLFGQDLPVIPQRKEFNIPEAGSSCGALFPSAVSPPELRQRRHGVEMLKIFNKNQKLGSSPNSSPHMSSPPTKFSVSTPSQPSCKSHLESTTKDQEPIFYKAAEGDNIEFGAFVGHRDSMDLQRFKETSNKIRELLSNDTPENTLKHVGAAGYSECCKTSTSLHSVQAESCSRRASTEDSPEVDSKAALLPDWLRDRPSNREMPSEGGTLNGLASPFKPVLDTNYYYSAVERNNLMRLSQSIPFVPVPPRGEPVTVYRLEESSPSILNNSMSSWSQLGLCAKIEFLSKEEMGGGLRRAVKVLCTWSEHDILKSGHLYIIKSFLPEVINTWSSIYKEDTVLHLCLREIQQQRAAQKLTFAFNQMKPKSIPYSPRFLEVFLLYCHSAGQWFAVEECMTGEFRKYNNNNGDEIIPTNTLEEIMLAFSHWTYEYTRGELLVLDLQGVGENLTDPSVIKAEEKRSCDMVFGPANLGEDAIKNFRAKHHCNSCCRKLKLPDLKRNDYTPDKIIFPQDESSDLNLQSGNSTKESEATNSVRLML
row,Compound,inhibition
1,O=C1C(c2ccccc2)=C(O)C2C=CC=C3c4ccccc4N1C32 (stereo not given),Active
2,Cc1cc(C2CCCCC2)n(O)c(=O)c1,Active
3,COc1cc(/C=C/C(=O)N2CCC=CC2=O)cc(OC)c1OC,Dose-dependent effect
4,Cc1ccc(NS(=O)(=O)c2ccc(-c3csc(C)n3)s2)c(C)c1,Active
5,CCn1cnc2c(Nc3cccc(Cl)c3)nc(N[C@@H]3CCCC[C@@H]3N)nc21 (relative stereo),Dose-dependent effect
6,COc1ccc(C[C@H]2NC[C@H](O)[C@H]2OC(C)=O)cc1,Dose-dependent effect

# Same assay, conditions: concentration not given here
row,Compound,inhibition
1,c1ccc2c(CNCc3cccc4ccccc34)cccc2c1,70%
2,CC(C)NC(=O)n1nccc1-c1cc(-c2ccccc2)no1,< 30%
3,CS/C(=N\c1ccc(C)cc1)Nc1ccc(C)cc1,50%
4,O=C(Nc1ccccc1)OCCSCc1ccc2nc(C(F)(F)F)ccc2c1,60%
5,Fc1ccc(CN2CCN(Cc3c[nH]c4ccccc34)CC2)cc1,70%
6,O=C(O)CNC(=O)c1cccs1,< 30%
7,Cc1ccc(C(=O)Nc2cccnc2Oc2ccc(C(C)(C)C)cc2)cc1C,60%
8,COc1ccc(C2C3CCc4ccccc4C3=NN2CCOC(=O)Nc2ccc(Cl)cc2)cc1 (stereo not given),60%
9,Clc1ccc(CO/N=C/c2nc3ccccc3s2)cc1,40%
10,CC1(C)C=Cc2ccc(OCC(=O)Nc3ccccc3)cc2O1,30%
11,N#C/C(=N\Nc1cccc(C(F)(F)F)c1)C(=O)c1csc(-c2cccnc2)n1,60%
12,COc1cc2c(cc1OC)C(c1cccc(C)c1)NCC2 (stereo not given),60%
13,Cc1ccc(-c2n[nH]cc2Sc2ccc(C(F)(F)F)cn2)cc1,< 30%
14,COc1ccc(CCNc2ccc(C(F)(F)F)cc2[N+](=O)[O-])cc1OC,30%
15,O=C(/C(=N/Nc1ccc([N+](=O)[O-])cc1)C(=O)C(F)(F)F)c1cccs1,40%
16,COc1cc2c(cc1OC)C(c1cccc(C)c1)N(C(=O)c1sc3ccccc3c1Cl)CC2 (stereo not given),40%
17,CC(=O)Nc1cc(C)ccc1C,< 30%
18,O=C(Nc1ccc(Cl)cc1)Nc1ccccc1Oc1ccccc1,50%
19,N=C(NC(=O)c1cccc(Cn2cc(C(F)(F)F)ccc2=O)c1)c1ccc(Cl)cc1,40%
20,C#CCOC(=O)NC(=O)c1c(-c2ccc(Cl)cc2)n[nH]c1SC,< 30%
21,N#Cc1ccc2c(c1)Sc1ccccc1N2,60%
22,O=C(O)CSc1cc(C(F)(F)F)nc2ccccc12,30%

row,Compound,inhibition
1,CC(=O)c1ccc(Nc2cc(C)nc3ccccc23)cc1,< 30%
2,O=C(NCc1cccs1)c1ccccc1,< 30%
3,Cc1csc(-c2nc(-c3ccc(Cl)cc3)no2)c1Cl,< 30%
4,Cc1onc(-c2ccccc2Cl)c1C(=O)Nc1cccc2cccnc12,60%
5,Cc1cc(C(=O)Nc2ccc(C(C)(C)C)cc2)nn1Cc1c(Cl)cccc1Cl,70%
6,O=C(c1sc2ccccc2c1Cl)N1CCc2ccccc2C1,70%
7,CCOC(=O)c1c(C)csc1NC(=O)CSc1ccc(Cl)cc1,50%
8,CC1(C)CC(=O)c2c(SCCOC(=O)Nc3cccc(Cl)c3)sc(C#N)c2C1,< 30%
9,O=c1oc2cc(O)ccc2c(O)c1Cc1ccc(Cl)c(Cl)c1,80%
10,O=S(=O)(Cc1nc2ccc(Cl)cc2s1)CS(=O)(=O)Nc1nc2ccc(Cl)cc2s1,70%
11,c1ccc(CSc2nccc(-c3ccc4c(c3)CCO4)n2)cc1,70%
12,Cn1c(CN2C(=O)CSc3ccc(C(F)(F)F)cc32)nnc1SCC(=O)c1ccccc1,< 30%
13,Cc1ccc(NC(=O)c2cccc3c2-c2ccccc2C3)cc1,< 30%
14,O=C(Nc1ccc(Cl)cc1)OCc1noc(-c2cccs2)n1,70%
15,CCCCCCCSc1nnc[nH]1,70%
16,Cc1onc(-c2c(Cl)cccc2Cl)c1C(=O)NCCc1csc2ccccc12,< 30%
17,COc1cc(OC)cc(C(C)(C)OC(=O)NCCC(=O)O)c1,< 30%
18,O=C(Nc1ccc(Oc2ccccc2)cc1)Nc1cccs1,70%
19,CN1CCN(NC(NC(=O)c2cccnc2)(C(F)(F)F)C(F)(F)F)CC1,< 30%
20,O=C(Nc1ccc(CN2CCS(=O)(=O)CC2)cc1)c1ccc(C(F)(F)F)cc1,40%
21,N#CC(C#N)=CNc1cc(C(F)(F)F)ccc1N1CCc2ccccc2C1,50%
22,c1ccc2c(CN3CCN(Cc4ccc5c(c4)OCO5)CC3)c[nH]c2c1,60%

row,Compound,inhibition
1,CCc1ccc2[nH]c(C(=O)N(C)c3ccc(F)cc3F)cc2c1,< 30%
2,N#C/C(=N\Nc1ccc(Cl)cc1)C(N)=S,60%
3,O=C(CSc1ssc(=S)c1-c1ccccc1)Nc1ccc(Cl)cc1,< 30%
4,COc1ccccc1N1CCN(Cc2c[nH]c(-c3ccccc3)n2)CC1,< 30%
5,CC(C)(C)c1ccc(OCc2ncc(S(=O)(=O)c3ccccc3)c(N)n2)cc1,< 30%
6,CCOC(=O)c1ccc2c(c1)CC/C(=C\c1cccc(C(F)(F)F)c1)C2=O,< 30%
7,Cc1cc(C)cc(N/C=C(\C#N)S(=O)(=O)c2ccc(Cl)cc2)c1,< 30%
8,CN(/N=C/Cc1nnnn1-c1ccc(Cl)cc1)c1ccccc1,< 30%
9,CC(=O)OC[C@H](OC(C)=O)[C@@H](OC(C)=O)[C@@H](OC(C)=O)[C@H](OC(C)=O)c1nnn[nH]1,< 30%
10,OC(COc1ccc(F)cc1)CN1CCN(Cc2c(F)cccc2Cl)CC1 (stereo not given),30%
11,C#CCSc1nc(-c2ccc(C(F)(F)F)cc2)nc(C)c1C(C)=O,< 30%
12,CCOC(=O)C(=CNNC(=O)c1cnn(-c2ccc([N+](=O)[O-])cc2)c1C(F)(F)F)C(=O)OCC,90%
13,Clc1ccc2c(N3CCCCC3)ccnc2c1,< 30%
14,O=C(NNC(=S)Nc1ccc2c(c1)CCCO2)c1ccco1,< 30%
15,COc1ccc2c(c1)CC/C(=C\c1ccc(Cl)cc1Cl)C2=O,60%
16,CS(=O)(=NS(=O)(=O)c1ccc(Cl)cc1Cl)c1ccc(Cl)cc1 (stereo not given),< 30%
17,CC(C)(C)S(=O)(=O)/C(C#N)=C/N/N=C/c1ccccc1Cl,< 30%
18,O=S(=O)(CCN1CCC(n2cccc2)CC1)c1ccc(F)cc1,40%
19,CC(=O)/C(C#N)=C/c1ccco1,< 30%
20,Brc1cn[nH]c1/C=N/Nc1nc(-c2ccccc2)cs1,50%
21,CN(C(=O)c1cnc(Oc2ccc(Cl)cc2)cc1C(F)(F)F)c1ccc(Cl)c(Cl)c1,60%
22,COc1ccc(NC(=S)Nc2ccc(C)c(NS(C)(=O)=O)c2)cc1,70%

row,Compound,inhibition
1,Cc1cc(-c2nc(-c3ccc(C(C)(C)C)cc3)no2)no1,30%
2,O=C(Nc1ccc2ccccc2n1)c1ccc(Cl)cc1,50%
3,Cc1csc2ncnc(N3CCN(C(=O)Nc4ccc(OC(F)(F)F)cc4)CC3)c12,50%
4,Cc1ccc(NC(=O)c2c(-c3ccccc3Cl)noc2C)cc1F,< 30%
5,CC(c1ccco1)N(C(=O)c1sc2ccccc2c1Cl)c1ccccn1 (stereo not given),< 30%
6,CSc1nc2c(c(/C=C/c3ccccc3)c1C#N)CCC2,< 30%
7,CC(C)(C)OC(=O)N1CCN(c2ccc(NS(=O)(=O)c3ccc(Cl)cc3)cn2)CC1,< 30%
8,COc1ccc(/C=N/NS(=O)(=O)c2ccc(Cl)cc2)cc1OC,80%
9,COc1cc2c(cc1OC)C(C(=O)c1sc3ccccc3c1Cl)=NCC2,80%
10,Brc1ccc2nc(C34CC5CC(CC(C5)C3)C4)cn2c1,60%
11,Oc1cc(C(F)(F)F)nc(SCc2ccccc2)n1,80%
12,Cc1ccc(S(=O)(=O)Nc2ccc(C)cc2NS(=O)(=O)c2ccc(Cl)cc2)cc1,40%
13,CC(=O)CSc1nnc(CN2C(=O)CSc3ccc(C(F)(F)F)cc32)n1C,< 30%
14,COc1ccc(S(=O)(=O)N2CCC(O)(c3ccc(Cl)cc3)CC2)cc1OC,40%
15,CSc1scc2c1-c1n[nH]cc1CC2,< 30%
16,CCOC(=O)c1cc(C)nn1C(=O)c1ccccc1Cl,30%
17,CCOC(=O)C(=CNNC(=O)c1cccs1)C(=O)OCC,60%
18,O=C1NC(=O)/C(=C/c2cccc(C#Cc3ccccc3)c2)S1,60%
19,O=C(O/N=C(\Cn1nnc(N2CCCCC2)n1)c1ccc(Cl)cc1)c1ccccc1Cl,< 30%
20,Cc1ccc(C(=O)Nc2ccc3c(c2)CS(=O)(=O)C3)cc1,< 30%
21,CC(C)(C)c1cc(C(=O)/C(C#N)=N/Nc2cccc(Cl)c2)no1,70%
22,CC(C)NC(=O)c1cc(-c2cccs2)on1,30%

row,Compound,inhibition
1,FC(F)(F)c1cc(Oc2ccc(Cl)cc2)ccc1-c1ncc(-c2cccc(Cl)c2)o1,70%
2,CCOC(=O)C1=C(C)NC(=O)NC1c1cccc2ccccc12 (stereo not given),< 30%
3,NNC(=O)CSc1ccccc1[N+](=O)[O-],40%
4,COC(=O)/C(=C/N(C)C)NC(=O)c1ccccc1,< 30%
5,N#Cc1ccc(NS(=O)(=O)c2ccc3ccccc3c2)cc1,40%
6,CN(C)c1cc(-c2cc(Cl)sc2Cl)oc(=O)c1Cl,< 30%
7,OC(CN1CCN(Cc2c(F)cccc2Cl)CC1)Cn1ccc2ccccc21 (stereo not given),50%
8,O=S1(=O)CC=C(S(=O)(=O)c2ccccc2)C1,< 30%
9,Cc1nc(-c2ccc(S(=O)(=O)Nc3cccc(S(N)(=O)=O)c3)s2)cs1,< 30%
10,CCCSC(=S)c1c(C)nn(-c2ccc(C)cc2)c1O,50%
11,CSc1nccc(-c2ccc(S(=O)(=O)n3nc(C)c(Br)c3C)s2)n1,< 30%
12,Cc1cccn2cc(-c3ccccc3Cl)nc12,30%
13,c1ccc2c(c1)Nc1nc3ccccc3nc1N2,< 30%
14,N#CC(C#N)=CNc1cc(C(F)(F)F)ccc1N1CCCC1,40%
15,C=C(C(=O)OC)C(O)c1ccc(Br)cc1 (stereo not given),60%
16,O=C(Sc1ccc(C(F)(F)F)cn1)c1ccc(Cl)cc1,< 30%
17,COc1ccccc1N1CCN(Cc2c[nH]nc2-c2ccccc2)CC1,80%
18,Cc1ccc(NS(=O)(=O)c2ccc(-c3cnc(C)s3)s2)c(C)c1,80%
19,CC(C)N(Cc1ccc(N(C)C)cc1)C(=O)c1sc2ccccc2c1Cl,50%
20,N=C(NS(=O)(=O)c1cc(Cl)c(Oc2ccc([N+](=O)[O-])cc2Cl)c(Cl)c1)c1cccnc1,70%
21,CC(=O)CC(O)c1ccncc1 (stereo not given),< 30%
